Data reported in patent US7482375B2, “Compounds useful in therapy” (Pfizer Inc., priority 2005, dated 2009).

Test system: not given
Assay: not given
Conditions: not given

Going from `CCc1nn(CCO)c(CC)c1Oc1ccc(C#N)c(Cl)c1` to `CCc1nn(CCO)c(CC)c1Oc1ccc(C#N)cc1` [Example 21, 4-[3,5-Diethyl-1-(2-hydroxy-ethyl)-1H-pyrazol-4-yloxy]-benzonitrile], the melting point falls from 85 °C to 82 °C.

First: CCOC(=O)Cn1nc(C2CC2)c(Oc2cc(C)c(C#N)c(C)c2)c1C1CC1 (hydrate or solvate) [Example 38, Ethyl[4-(4-cyano-3,5-dimethylphenoxy)-3,5-dicyclopropyl-1H-pyrazol-1-yl]acetate]
Second: CNC(=O)Cn1nc(C2CC2)c(Oc2ccc(C#N)cc2)c1C1CC1 [Example 52, 2-[4-(4-Cyanophenoxy)-3,5-dicyclopropyl-1H-pyrazol-1-yl]-N-methylacetamide]
The melting point of the first is lower: 156 to 157 °C for the first, 163 °C for the second.

First: CCc1nn(CCO)c(CC)c1Oc1cc(C)c(C#N)c(C)c1 [Example 27, 4-[3,5-Diethyl-1-(2-hydroxy-ethyl)-1H-pyrazol-4-yloxy]-2,6-dimethyl-benzonitrile]
Second: CCOC(=O)Cn1nc(CC)c(Oc2ccc(C#N)cc2)c1CC [Example 35, Ethyl[4-(4-cyanophenoxy)-3,5-diethyl-1H-pyrazol-1-yl]acetate]
The melting point of the first is lower: 97 °C for the first, 147 to 149 °C for the second.

Target: T1, Progesterone Receptor (PR) (Homo sapiens, UniProt P06401)
T1 construct: endogenous in cells; host or cells: T47D human breast mammary carcinoma cells
T1 sequence (P06401 1-933): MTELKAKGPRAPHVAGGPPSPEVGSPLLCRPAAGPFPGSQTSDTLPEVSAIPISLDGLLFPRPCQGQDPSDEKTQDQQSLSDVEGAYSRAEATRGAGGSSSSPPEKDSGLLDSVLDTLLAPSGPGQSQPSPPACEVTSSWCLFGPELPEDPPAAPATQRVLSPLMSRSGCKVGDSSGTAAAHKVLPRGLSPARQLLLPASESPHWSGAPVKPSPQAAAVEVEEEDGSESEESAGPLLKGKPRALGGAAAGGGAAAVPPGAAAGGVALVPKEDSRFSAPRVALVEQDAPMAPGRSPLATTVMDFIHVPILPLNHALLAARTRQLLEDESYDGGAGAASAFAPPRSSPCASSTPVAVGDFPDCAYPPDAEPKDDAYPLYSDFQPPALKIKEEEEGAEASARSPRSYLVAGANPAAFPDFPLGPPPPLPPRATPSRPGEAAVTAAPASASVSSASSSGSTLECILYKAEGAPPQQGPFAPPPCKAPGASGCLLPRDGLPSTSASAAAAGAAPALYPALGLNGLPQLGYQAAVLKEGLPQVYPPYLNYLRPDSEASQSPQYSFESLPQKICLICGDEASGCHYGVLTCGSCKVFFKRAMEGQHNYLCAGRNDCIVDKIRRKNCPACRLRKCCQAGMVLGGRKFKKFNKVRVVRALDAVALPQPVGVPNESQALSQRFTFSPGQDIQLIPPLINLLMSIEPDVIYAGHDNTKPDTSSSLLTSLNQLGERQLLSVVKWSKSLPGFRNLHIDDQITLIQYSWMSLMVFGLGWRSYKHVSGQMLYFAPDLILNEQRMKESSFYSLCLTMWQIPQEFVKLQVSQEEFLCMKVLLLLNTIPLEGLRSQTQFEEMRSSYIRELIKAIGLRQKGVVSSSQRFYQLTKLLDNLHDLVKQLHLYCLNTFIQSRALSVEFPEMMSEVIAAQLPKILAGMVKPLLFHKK
Assay: In vitro functional assay for progesterone receptor (PR) antagonism: inhibition of progesterone-induced alkaline phosphatase expression in T47D cells
Format: cell-based
Conditions: Screen 1.0, functional progesterone antagonism; antagonist format (5 nM P4), alkaline phosphatase inhibition in T47D human mammary carcinoma cells
Source text: 1.0 In vitro Functional Assay for Progesterone Receptor (PR) Antagonism
The assay for PR antagonism takes advantage of the extensively reported modulation of alkaline phosphatase (AP) expression in human breast T47D mammary carcinoma cells {Beck et al., D. P. (1993). The progesterone antagonist RU486 acquires agonist activity upon stimulation of cAMP signalling pathways. Proc Natl Acad Sci USA 90, 4441-4445; Fensome et al. (2002). New progesterone receptor antagonists: 3,3-disubstituted-5-aryloxindoles. Bioorg Med Chem Left 12, 3487-3490; Zhang et al., (2002a). 6-Aryl-1,4-dihydro-benzo d 1,3 oxazin-2-ones: a novel class of potent, selective, and orally active nonsteroidal progesterone receptor antagonists. Journal of Medicinal Chemistry 45, 4379-4382; Zhang et al., (2003). Novel 6-aryl-1,4-dihydrobenzo d oxazine-2-thiones as potent, selective, and orally active nonsteroidal progesterone receptor agonists. Bioorganic & Medicinal Chemistry Letters 13, 1313-1316; Zhang et al., (2002b). Potent nonsteroidal progesterone receptor agonists: synthesis and SAR study of 6-aryl benzoxazines. Bioorganic & Medicinal Chemistry Letters 12, 787-790; Zhang, Z. et al., (2000). In vitro characterization of trimegestone: a new potent and selective progestin. Steroids 65, 637-643.}. […] In the absence of progesterone any agonist activity is also observed as an induction of AP activity. By running the assay in two formats (+/−progesterone (P4)), compounds behaving as PR antagonists, agonists or partials can be identified.
The materials required to grow T47D cells and perform the progesterone-induced AP assay are outlined in Table 1.
Briefly, T47D cells are grown by propagating in DMEM+10% FBS+2 mM Glutamax at 37° C./5% CO2. At 80-90% confluence, the media is exchanged for phenol red free DMEM+5% CS-FCS (Assay media) and cultured for a further 24 hrs at 37° C./5% CO2. T47D cells are then plated at 2.5×10^4 cells/well in 100 μL assay media in sufficient 96 well plates for the assay, in triplicates of each condition. For example, for a 5 point IC50 curve on one compound, this is equivalent to 36 wells (2×18 wells, ±P4). These plates are then cultured for 24 hrs at 37° C./5% CO2, leaving the outside wells blank by the addition of 200 μL PBS.
A 10 mM stock solution of compounds is prepared in DMSO (stored −20° C. in 10 µL aliquots). A 10 mM DMSO stock of RU486 is used as a standard pure PR antagonist. The compounds under investigation are added to assay medium, or a mixture of 0.05% pluronic acid in PBS, ±10 nM P4 to give a final concentration of 20 µM (i.e. 10 µL of the 10 mM stock to […] assay medium ±10 nM P4). The samples are mixed thoroughly and serial dilutions of compounds from 10 µM to 0.1 nM in a 96 well plate, are prepared as follows:
The outside wells are left blank. Assay medium (225 μL) is added to one half of the plate (−P4), rows 3-8, and to the other half of the plate, assay medium +10 nM P4. To row 2, 250 μL of the top concentration of compound (20 μM±10 nM P4) is added. 25 μL of the […] stock from row 2 is removed and added to the 225 μL of assay medium ±10 nM P4 in row 3 and thoroughly mixed. This process is repeated down the plate to row 7 to achieve serial dilutions. The vehicle control is adjusted to contain 0.1% DMSO (i.e. 20 μL to 10 mL assay medium ±10 nM P4 to give a concentration of 0.2% DMSO, add 250 μL to row 8).
100 μL of reagent from the dilution plates are transferred into the corresponding wells containing T47D cells in 100 μL assay medium, to give a final concentration of 10 μM to 0.1 nM compound (5 nM P4 antagonist format). The cells for 20 hrs at 37° C./5% CO2., then media is removed, cells washed with PBS (200 μL) and lysed by placing the cells at −80° C. for 15 min and thawing at room temp. The Freeze-thaw lysis is repeated, then PBS (50 μL) is added to each well. […]

Compared with `Cc1cc(Oc2c(C3CC3)n[nH]c2C2CC2)cc(C)c1C#N` [Example 4, 4-[(3,5-Dicyclopropyl-1H-pyrazol-4-yl)oxy]-2,6-dimethylbenzonitrile], `CNC(=O)Cn1nc(C2CC2)c(Oc2cc(C)c(C#N)c(C)c2)c1C1CC1` [Example 65, 2-[4-(4-Cyano-3,5-dimethylphenoxy)-3,5-dicyclopropyl-1H-pyrazol-1-yl]-N-methyl-acetamide] is 3-fold lower in IC50: 9 nM for the first, 3 nM for the second.

`CNC(=O)Cn1nc(C2CC2)c(Oc2cc(C)c(C#N)c(C)c2)c1C` [Example 71, 2-[4-(4-Cyano-3,5-dimethyl-phenoxy)-3-cyclopropyl-5-methyl-1H-pyrazol-1-yl]-N-methyl-acetamide] and `Cc1cc(Oc2c(C3CC3)nn(Cc3cncnc3)c2C2CC2)cc(C)c1C#N` [Example 126, 4-({3,5-Dicyclopropyl-1-[(pyrimidin-5-yl)methyl]-1H-pyrazol-4-yl}oxy)-2,6-dimethylbenzonitrile] are within 1.5-fold of each other in IC50: 4 nM for the first, 3 nM for the second.

`CCc1nn(CC#N)c(CC)c1Oc1cc(C)c(C#N)c(C)c1` [Example 87, 4-{[1-(Cyanomethyl)-3,5-diethyl-1H-pyrazol-4-yl]oxy}-2,6-dimethylbenzonitrile] and `CCCn1nc(CC)c(Oc2ccc(C#N)cc2)c1CC` [Example 146, 4-[(3,5-Diethyl-1-propyl-1H-pyrazol-4-yl)oxy]benzonitrile] are within 1.5-fold of each other in IC50: 5 nM for the first, 6 nM for the second.
